Results from ChEMBL document CHEMBL1143193, “A new family of H3 receptor antagonists based on the natural product Conessine” (Bioorg Med Chem Lett, 2008).
Calls of active or inactive are those of the source. No cut-off for these calls is given here.

What was measured:
Histamine H3 receptor = Histamine H3 receptor (Rattus norvegicus, UniProt Q9QYN8); assay: Displacement of N-[3H]methylhistamine from histamine H3 receptor in rat cortex
Rattus norvegicus = species: Rattus norvegicus; assay: Inhibition of R-alpha-methylhistamine-induced drinking response in rat dipsogenia model; type: functional
[1] = Half life in rat; type: ADME, organism-based; conditions: in vivo
Homo sapiens [2] = species: Homo sapiens; assay: Selectivity for human histamine H3 receptor over human histamine H1 receptor
Homo sapiens [3] = species: Homo sapiens; assay: Selectivity for human histamine H3 receptor over human histamine H4 receptor
Homo sapiens [4] = species: Homo sapiens; assay: Selectivity for human histamine H3 receptor over human histamine H2 receptor
[5] = Oral bioavailability in rat; type: ADME, organism-based; conditions: in vivo
[6] = target: Histamine H3 receptor (Rattus norvegicus) (UniProt Q9QYN8); assay: Displacement of N-[3H]methylhistamine from histamine H3 receptor in rat cortex at < 5 uM
Sequence of Histamine H3 receptor (Rattus norvegicus) (Q9QYN8 whole entry): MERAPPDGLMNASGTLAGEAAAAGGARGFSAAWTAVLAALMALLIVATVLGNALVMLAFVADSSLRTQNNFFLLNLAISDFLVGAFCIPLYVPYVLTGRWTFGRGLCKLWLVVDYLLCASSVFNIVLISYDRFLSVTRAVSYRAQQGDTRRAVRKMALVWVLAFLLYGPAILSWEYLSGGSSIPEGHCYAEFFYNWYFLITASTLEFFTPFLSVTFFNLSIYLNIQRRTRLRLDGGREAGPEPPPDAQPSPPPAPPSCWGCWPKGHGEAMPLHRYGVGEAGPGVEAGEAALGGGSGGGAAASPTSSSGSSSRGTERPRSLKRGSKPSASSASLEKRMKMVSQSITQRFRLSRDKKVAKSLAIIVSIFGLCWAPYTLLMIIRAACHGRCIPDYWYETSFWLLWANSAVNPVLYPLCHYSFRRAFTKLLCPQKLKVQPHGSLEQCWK

Sequence of Histamine H3 receptor (Q9QYN8 whole entry): as above

| Structure (SMILES) | Ki (Histamine H3 receptor; read-out: Ki) [nM] | further results |
| --- | --- | --- |
| C1=C(c2ccc(CCN3Cc4ccccc4C3)cc2)C2CN(Cc3ccccc3)CC2C1 (stereo not drawn) | 256 | – |
| FC1(F)CCN(CCc2ccc(C3=CCC4CN(Cc5ccccc5)CC34)cc2)C1 (stereo not drawn) | 2.8 | – |
| O=C1CCCN1CCc1ccc(C2=CCC3CN(Cc4ccccc4)CC23)cc1 (stereo not drawn) | 310 | Ki (Histamine H3 receptor; read-out: Log Ki (converted)): 132 nM |
| C1=C(c2ccc(CCN3CCOCC3)cc2)C2CN(Cc3ccccc3)CC2C1 (stereo not drawn) | 1.7 | – |
| C[C@H]1[C@H]2CC[C@H]3[C@@H]4CC=C5C[C@@H](N(C)C)CC[C@]5(C)[C@H]4CC[C@]23CN1C [CONESSINE] | 66 | – |
| OC[C@H]1CCCN1CCc1ccc(C2=CCC3CN(Cc4ccccc4)CC23)cc1 (stereo partly drawn) | 0.51 | – |
| C1=C(c2ccc(CCN3CCCCC3)cc2)C2CN(Cc3ccccc3)CC2C1 (stereo not drawn) | 0.4 | – |
| C1=C(c2ccc(CCN3CCc4ccccc43)cc2)C2CN(Cc3ccccc3)CC2C1 (stereo not drawn) | – | Activity [6]: inactive |
| CC1CCCN1CCc1ccc(C2=CCC3CN(Cc4ccccc4)CC23)cc1 (stereo not drawn) | 0.05 | – |
| CN1CCN(CCc2ccc(C3=CCC4CN(Cc5ccccc5)CC34)cc2)CC1 (stereo not drawn) | 58 | – |
| C1=C(c2ccc(CCN3CCC3)cc2)C2CN(Cc3ccccc3)CC2C1 (stereo not drawn) | 2.4 | – |
| CN(C)CCc1ccc(C2=CCC3CN(Cc4ccccc4)CC23)cc1 (stereo not drawn) | 2.3 | – |
| OC[C@@H]1CCCN1CCc1ccc(C2=CCC3CN(Cc4ccccc4)CC23)cc1 (stereo partly drawn) | 0.16 | – |

Second part, led by results:

| Ki (Histamine H3 receptor; read-out: Ki) [nM] | Structure (SMILES) | further results |
| --- | --- | --- |
| 0.3 | C1=C(c2ccc(CCN3CCCC3)cc2)C2CN(Cc3ccccc3)CC2C1 (stereo not drawn) | – |
| 0.4 | C1=C(c2ccc(CCN3CCCC3)cc2)C2CN(C3CCCC3)CC2C1 (racemic) | – |
| 0.1 | C1=C(c2ccc(CCN3CCCC3)cc2)C2CN(CC3CC3)CC2C1 (racemic) | Ki (Histamine H3 receptor; read-out: Log Ki (converted)): 0.112 nM |
| 0.07 | C1=C(c2ccc(CCN3CCCC3)cc2)[C@@H]2CN(CC3CC3)C[C@@H]2C1 | Activity (Rattus norvegicus): Dose-dependent effect; minimal effective dose (Rattus norvegicus; read-out: MED): 3 mg/kg; half-life [1]: 6 h; Selectivity ratio (Homo sapiens [2]): > 1000; Selectivity ratio (Homo sapiens [3]): > 1000; Selectivity ratio (Homo sapiens [4]): > 1000; bioavailability [5]: 78% |
| 0.05 | C1=C(c2ccc(CCN3CCCC3)cc2)[C@@H]2CN(Cc3ccccc3)C[C@@H]2C1 | Selectivity ratio (Homo sapiens [2]): > 1000; Selectivity ratio (Homo sapiens [3]): > 1000; Selectivity ratio (Homo sapiens [4]): > 1000 |
| 36 | C1=C(c2ccc(CCN3CCCC3)cc2)C2CN(c3ncccn3)CC2C1 (stereo not drawn) | – |
| 0.08 | C1=C(c2ccc(CCN3CCCC3)cc2)[C@@H]2CN(C3CCCC3)C[C@@H]2C1 | – |
| 0.9 | CC(C)N1CC2CC=C(c3ccc(CCN4CCCC4)cc3)C2C1 (racemic) | – |
| 0.75 | C1=C(c2ccc(CCN3CCCC3)cc2)[C@H]2CN(Cc3ccccc3)C[C@H]2C1 | – |
| 67 | C1=C(c2ccc(CCN3CCCC3)cc2)C2CN(c3ccccc3)CC2C1 (stereo not drawn) | – |
| 7 | C1=C(c2ccc(CCN3CCCC3)cc2)C2CN(c3cncnc3)CC2C1 (stereo not drawn) | – |
| 2 | C1=C(c2ccc(CCN3CCCC3)cc2)C2CN(c3ccccn3)CC2C1 (stereo not drawn) | – |
| 0.29 | CC(C)N1C[C@@H]2CC=C(c3ccc(CCN4CCCC4)cc3)[C@@H]2C1 | – |
